Experimental data taken from article PMC4291348, “A Continuous Enzyme-Coupled Assay for Triphosphohydrolase Activity of HIV-1 Restriction Factor SAMHD1” (Antimicrobial Agents and Chemotherapy, 2014).

Assays:
[1] = target: T1, SAMHD1 (residues 115 to 626) (Homo sapiens, UniProt Q9Y3Z3); test: Continuous enzyme-coupled (Ppx1 / MDCC-PBP) real-time assay of SAMHD1 triphosphohydrolase activity; format: biochemical; conditions: GTP activator 0.2 mM, 25°C
T1 construct: The catalytic domain of SAMHD1 (residues 115 to 626) was expressed and purified as previously described; made in house
T1 sequence (Q9Y3Z3 115-626): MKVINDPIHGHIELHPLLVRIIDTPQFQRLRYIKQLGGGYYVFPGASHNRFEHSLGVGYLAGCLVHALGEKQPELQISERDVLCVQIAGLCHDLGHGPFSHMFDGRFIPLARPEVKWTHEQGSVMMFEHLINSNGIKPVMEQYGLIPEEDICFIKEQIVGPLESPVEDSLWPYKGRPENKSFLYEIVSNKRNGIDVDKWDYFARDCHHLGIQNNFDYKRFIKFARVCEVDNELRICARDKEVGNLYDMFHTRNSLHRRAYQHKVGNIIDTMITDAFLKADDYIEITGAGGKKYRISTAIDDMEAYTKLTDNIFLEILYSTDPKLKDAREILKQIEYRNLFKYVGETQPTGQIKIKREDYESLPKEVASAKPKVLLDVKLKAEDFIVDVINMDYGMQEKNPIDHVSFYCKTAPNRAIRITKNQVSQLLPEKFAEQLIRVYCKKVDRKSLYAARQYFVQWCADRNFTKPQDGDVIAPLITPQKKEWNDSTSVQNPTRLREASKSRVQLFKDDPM
Description: The steady-state kinetics of SAMHD1 were determined by a coupled-enzyme assay using Ppx1 and a fluorescent phosphate biosensor, MDCC-PBP. The reactions were set up in 20-μl volumes in 384-well low-protein-binding microplates (Corning, USA), and the time-dependent fluorescence signal was measured using a Tecan Saffire^2 multiwell plate reader (Männedorf, Switzerland). Solutions containing SAMHD1 (residues 115 to 626), Ppx1, MDCC-PBP, an activator, and an inhibitor (if present) were incubated for 5 min at 25°C before the reaction was initiated by the addition of the substrate. The final concentrations were 100 nM SAMHD1, 10 nM Ppx1, and 40 μM MDCC-PBP. Depending on the experiment, the concentration of the substrate, the activator, or the inhibitor varied while the substrate and/or the activator was held constant at 1 mM and 0.2 mM, respectively. The fluorescence intensity was recorded at 430 nm for excitation and 465 nm for emission wavelengths, with a 7-nm slit width, at 8- to 10-s time intervals over a period of 10 to 30 min. The standard curves were obtained by incubating 40 μM MDCC-PBP with different concentrations of phosphate (Pi) and measuring the fluorescence, as discussed above. The fluorescence response was linear and in the range of 0 to 20 μM Pi.
The steady-state rates were obtained from the time courses of Pi formation by linear regression of the data points in the linear phase of the reaction. Rates were divided by the SAMHD1 concentration and were plotted versus the activator, substrate, or inhibitor concentration. Apparent dissociation constants for the activator (KA) or the substrate binding (KS) and the catalytic constant (kcat) were determined by nonlinear least-squares fitting using either a hyperbolic or a Hill-function equation in the software package GraFit 7.0.3 (Erithacus Software, United Kingdom) ([22]). […] Data from the three different experiments were analyzed by a least-squares fit using the equation for competitive inhibition. The fits for the three data sets yielded invariant values for the inhibition constants (Ki), supporting a competitive mode of inhibition. All measurements were performed in triplicate in the reaction buffer.

[2] = system: T2, SAMHD1; test: IEX-HPLC assay of SAMHD1 triphosphohydrolase activity; format: biochemical, human; conditions: 0.2 mM GTP activated, 1 mM dATP, three enzyme concentrations 2.5, 5, 7.5 µM
T2 construct: The catalytic domain of SAMHD1 (residues 115 to 626) was expressed and purified as previously described; made in house
Description: IEX-HPLC assay of SAMHD1 Triphosphohydrolase activity
In a typical assay 2-10 µM SAMHD1 was incubated with 0.2 mM GTP activator and 1mM dNTP as substrate in Reaction buffer, 20mM Tris-HCl, 150 mM NaCl, 5 mM MgCl2, 2 mM TCEP (pH 7.5). The reaction was allowed to proceed and samples withdrawn at timed intervals up to 5 minutes and terminated by 10 fold dilution into 18.0% acetonitrile, 25mM Tris-HCl, 1 mM EDTA pH 8.0. The nucleotide hydrolysis reactions were analysed by anion exchange HPLC using a DNA-PAC100 (4 x 50mm) column (Dionex). The column was equilibrated at 30°C at 1 mL/min in 25mM Tris-HCl, 0.5% acetonitrile pH 8.0 (Buffer A). […] Absorbance data from the column eluent was continuously monitored between 200-400nm (2 nm interval) using MD-2010 photodiode array detector (JASCO). Peak integration of the absorbance data recorded at 260 nm was used to quantify the amount of substrate and products during at each time point of the reaction. Initial rates of dNTP hydrolysis were determined from the linear part of plots of substrate against time.
Supplementary Figure S1 - HPLC traces of 0.2 mM GTP activated SAMHD1 hydrolysis of 1 mM dATP. […] Inset, kcat was determined by linear regression of Kapp over three enzyme concentrations, 2.5 µM, 5 µM and 7.5
µM. Error bars represent the SEM of three independent measurements recorded at each substrate concentration. […]

- KS, apparent dissociation constant for substrate binding [1]: 42.1 ± 6.9 µM
- kcat [1]: 0.94 ± 0.06 s⁻¹
- kcat [2]: 0.99 s⁻¹
SMILES: Nc1ncnc2c1ncn2[C@H]1C[C@H](O)[C@@H](COP(=O)(O)OP(=O)(O)OP(=O)(O)O)O1 [dATP]
